Measured values as given in publication PMC6152024 (Molecules : A Journal of Synthetic Chemistry and Natural …, 2017).
Like-named read-outs stand apart in the source and are kept apart here.

Key:
[1] = In vivo pharmacokinetic study of DCCTX and Gom A in rats; conditions: Sprague-Dawley, rat, plasma, iv, 300 mg/kg; for AUC(0-t): read-out: AUC0–8h; for MRT last: read-out: MRT0–8h
Procedure: Rats were randomly divided into five groups (groups 1−5, n = 6), respectively. To determine the short- and long-term effect of single-dose Gom A pretreatment on CYP3A metabolism of CTX, Gom A and CTX were administered to rats with different time intervals in groups 2−5. In brief, rats in group 1 (CTX alone group) were i.g. administered with saline (10 mL/kg, vehicle control), and rats in groups 2−5 were given Gom A (i.g.) at the dose of 20.8 mg/kg (50 μmol/kg). Rats in group 1 were intravenously (i.v.) administered with CTX (300 mg/kg) 0.5 h after saline administration. In groups 2–5, rats were given CTX (i.v.) 0.5, 6, 24 and 72 h after Gom A pretreatment, respectively. Mesna was injected (420 mg/kg, i.v.) 1 hour after CTX administration in all groups to prevent bladder injury in accordance with clinical practice.
Blood samples were collected from the postocular vein at 0.083, 0.25, 0.5, 1, 2, 3, 4, 6, 8, 12 and 24 h after CTX injection. Samples were transferred to heparin tubes and centrifuged at 5000 rpm for 15 min. Plasma was obtained and stored at −20 °C until required for further analysis.
UHPLC-MS/MS method (I): 6OH-Tes concentrations were analyzed according to the previous reports with slight modifications (Supplementary Figure S3). The terminated sample were centrifuged at 14,000 rpm for 10 min, 10 μL of each supernatant was injected into the UHPLC-MS/MS system for analysis. In general, an Agilent Elipse Plus 2.1 × 50 mm column packed with 1.8 µm C18 was applied. The column temperature was set as 30 °C at a flow rate of 0.3 mL/min. The mobile phase was consisted of aqueous 1% formic acid with the addition of 10 mM ammonium acetate solution (A) and methanol (B) with the gradient elution program set as follow: 5–50–80% B from 0–1–4 min. The ion transitions were m/z 305.0→269.0 for 6OH-Tes and m/z 181.0→111.0 for phenacetin (IS-I). UHPLC-MS method (II): DCCTX concentrations were determined using our previously developed UHPLC-MS/MS method (Supplementary Figure S4). For pharmacokinetic study, plasma samples were diluted 30-fold with plasma from drug-free rats. After vortexing for 2 min, 100 μL of each diluted sample was mixed with 400 μL acetonitrile (containing 6 ng/mL TNZ (IS-II), vortexed, and centrifuged at 14,000 rpm for 10 min. 100 μL supernatant of each sample was mixed with 400 μL aqueous solution containing 10% acetonitrile followed by a rough centrifugation. For HLMs inhibition study, samples were vortexed for 1 min after reaction termination, and the mixture was then centrifuged at 14,000 rpm for 10 min. After centrifugation, the obtained supernatant (5 μL) was injected into the UHPLC-MS/MS system, using methanol/10 mM ammonium acetate aqueous solution as the mobile phase at a flow rate of 0.25 mL/min. The ion transitions were set as m/z 199.2→78 for DCCTX and m/z 248.1→121.1 for TNZ (IS-II). UHPLC-MS/MS method (III): Gom A concentrations were determined using slightly modified LC/MS method which developed by our laboratory. Briefly, a 100 µL plasma sample was transferred to a 10 mL centrifuge tube with addition of 20 µL IS solution and 20 µL water/acetonitrile (90:10, v/v), vortexed for 30 s and then extracted using 3 mL methyl tertiary butyl ether. After extraction, the sample was centrifuged at 5000 rpm for 10 min. The organic layer was quantitatively transferred to a 5 mL glass tube and evaporated to dryness at 35 °C. Then the dried extract was reconstituted in 100 µL solvent (water–acetonitrile, 20:80, v/v) followed by injection of 10 µL aliquot into LC-MS/MS system. Separation was performed on a Zorbax SB-C18 reserved-phase column (100 mm × 2.1 mm i.d., 3.5 µm) with the mobile phase consisting of acetonitrile, methanol and water −0.1% formic acid (72:18:10, v/v/v) at a flow rate of 0.3 mL/min. The ion transitions were set as m/z 399→329 for Gom A and m/z 387.0→145.0 for bifendate (IS-III). […]

[2] = cited from earlier work
[3] = Group 1: CTX 300 mg/kg i.v. alone (saline 0.5 h before)
[4] = Group 2: CTX 300 mg/kg i.v. 0.5 h after Gom A 20.8 mg/kg i.g.
[5] = Group 3: CTX 300 mg/kg i.v. 6 h after Gom A 20.8 mg/kg i.g.
[6] = Group 4: CTX 300 mg/kg i.v. 24 h after Gom A 20.8 mg/kg i.g.
[7] = Group 5: CTX 300 mg/kg i.v. 72 h after Gom A 20.8 mg/kg i.g.

Compound: O=P1(NCCCl)NCCCO1 (stereo not drawn) [DCCTX, 2-dechloroethylcyclophosphamide]
- Cmax [1, 3]: 8600 ± 1300 ng/mL
- Tmax [1, 3]: 2 ± 0.1 h
- half-life [1, 3]: 2.2 ± 0.5 h
- AUC(0-t) [1, 3]: 32500 ± 8400 ng·h/mL
- MRT last [1, 3]: 3.3 ± 0.2 h
- Cmax [1, 4]: 1900 ± 200 ng/mL
- Tmax [1, 4]: 2.9 ± 0.6 h
- half-life [1, 4]: 3.1 ± 0.9 h
- AUC(0-t) [1, 4]: 8900 ± 300 ng·h/mL
- MRT last [1, 4]: 3.8 ± 0.2 h
- Cmax [1, 5]: 2600 ± 500 ng/mL
- Tmax [1, 5]: 3.7 ± 0.8 h
- half-life [1, 5]: 3.2 ± 0.8 h
- AUC(0-t) [1, 5]: 11800 ± 2500 ng·h/mL
- MRT last [1, 5]: 4.2 ± 0.1 h
- Cmax [1, 6]: 16200 ± 1200 ng/mL
- Tmax [1, 6]: 2 ± 0.1 h
- half-life [1, 6]: 2 ± 0.4 h
- AUC(0-t) [1, 6]: 65900 ± 12400 ng·h/mL
- MRT last [1, 6]: 3.3 ± 0.2 h
- Cmax [1, 7]: 20000 ± 3100 ng/mL
- Tmax [1, 7]: 3.3 ± 0.5 h
- half-life [1, 7]: 3.8 ± 1.2 h
- AUC(0-t) [1, 7]: 79200 ± 19100 ng·h/mL
- MRT last [1, 7]: 3.7 ± 0.2 h

Compound: C=CC[C@@H]1/C=C(\C)C[C@H](C)C[C@H](OC)[C@H]2O[C@@](O)(C(=O)C(=O)N3CCCC[C@H]3C(=O)O[C@H](/C(C)=C/[C@@H]3CC[C@@H](O)[C@H](OC)C3)[C@H](C)[C@@H](O)CC1=O)[C@H](C)C[C@@H]2OC [Tacrolimus]
- plasma protein binding [2]: strongly bound to plasma protein

Compound: O=P1(N(CCCl)CCCl)NCCCO1 (stereo not drawn) [CTX, cyclophosphamide]
- plasma protein binding rate [2]: approximately 9%
